Numbers after ± are expanded uncertainties.
Test: xn = mol fraction of the nth substance listed
Conditions: 100 kPa, Liquid; for speed of sound: Frequency=3 MHz, Sing-around technique in a fixed-path interferometer; for mass density: Vibrating tube method

CCCC[n+]1ccn(C)c1.O=S(=O)([N-]S(=O)(=O)C(F)(F)F)C(F)(F)F + CN1CCCC1=O
Conditions	mass density, 298.15 K [kg/m3]	mass density, 303.15 K [kg/m3]	mass density, 308.15 K [kg/m3]	mass density, 313.15 K [kg/m3]	speed of sound, 298.15 K [m/s]	speed of sound, 303.15 K [m/s]	speed of sound, 308.15 K [m/s]	speed of sound, 313.15 K [m/s]	speed of sound, 318.15 K [m/s]
x1 = 0.1051	1135.14 ± 1	1130.6 ± 1	1126.04 ± 1	1121.51 ± 1	1448.1 ± 1.4	1430.8 ± 1.4	1413.4 ± 1.4	1396.4 ± 1.4	1379.1 ± 1.4
x1 = 0.2088	1209.84 ± 1	1205.24 ± 1	1200.63 ± 1	1196.02 ± 1	1385.2 ± 1.4	1369.4 ± 1.4	1353.5 ± 1.4	1337.9 ± 1.4	1322.3 ± 1.4
x1 = 0.2926	1255.56 ± 1	1250.89 ± 1	1246.22 ± 1	1241.59 ± 1	1347.3 ± 1.3	1332.5 ± 1.3	1317.8 ± 1.3	1303.1 ± 1.3	1288.7 ± 1.3
x1 = 0.3807	1293.95 ± 1	1289.25 ± 1	1284.55 ± 1	1279.89 ± 1	1317 ± 1.3	1303.1 ± 1.3	1289.2 ± 1.3	1275.6 ± 1.3	1262.1 ± 1.3
x1 = 0.5019	1335.52 ± 1	1330.79 ± 1	1326.08 ± 1	1321.38 ± 1	1287.5 ± 1.3	1274.3 ± 1.3	1261.2 ± 1.3	1248.3 ± 1.3	1235.4 ± 1.3
x1 = 0.5925	1360.41 ± 1	1355.69 ± 1	1350.96 ± 1	1346.26 ± 1	1271 ± 1.3	1258.2 ± 1.3	1245.5 ± 1.3	1232.9 ± 1.3	1220.3 ± 1.3
x1 = 0.6982	1384.58 ± 1	1379.86 ± 1	1375.14 ± 1	1370.44 ± 1	1255.8 ± 1.3	1243.5 ± 1.3	1231.1 ± 1.3	1218.9 ± 1.3	1206.6 ± 1.3
x1 = 0.7862	1401.58 ± 1	1396.85 ± 1	1392.14 ± 1	1387.44 ± 1	1245.6 ± 1.3	1233.5 ± 1.3	1221.5 ± 1.3	1209.5 ± 1.3	1197.5 ± 1.3
x1 = 0.8895	1418.59 ± 1	1413.85 ± 1	1409.13 ± 1	1404.42 ± 1	1236.2 ± 1.3	1224.4 ± 1.3	1212.7 ± 1.3	1201.2 ± 1.3	1189.5 ± 1.3
x1 = 1	1433.72 ± 1	1428.92 ± 1	1424.13 ± 1	1419.36 ± 1	1227.9 ± 1.3	1216.8 ± 1.3	1205.8 ± 1.2	1195 ± 1.2	1184.2 ± 1.2

— the NIST ThermoML archive (doi:10.1016/j.jct.2016.03.029)
